Reference: ChEMBL document CHEMBL1201862, “PubChem BioAssay data set” (2004)
Active and inactive are the calls of the source.

Experiments:
[1] = Luminescence Cell-Based Dose Retest to Confirm Inhibitors of Cancer Stem Cells. [Related pubchem assays (depositor defined):AID2717, AID2721]; format: functional; settings: Homo sapiens
[2] = mitochondrial function rescue without frataxin homolog – Friedreich's ataxia, plus single-dose screen, dose response (AID 1465); format: functional;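 further: yeast depleted of Yfh1p frataxin homolog grown on glycerol needing respiration; WST-1 tetrazolium dye reduction as measure of cellular dehydrogenase metabolic activity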
[3] = biological target: Nonstructural protein 1 (Influenza A virus, UniProt Q194T2); format: functional, Influenza A virus (A/California/07/2009(H1N1))
Nonstructural protein 1, sequence (Q194T2 whole entry): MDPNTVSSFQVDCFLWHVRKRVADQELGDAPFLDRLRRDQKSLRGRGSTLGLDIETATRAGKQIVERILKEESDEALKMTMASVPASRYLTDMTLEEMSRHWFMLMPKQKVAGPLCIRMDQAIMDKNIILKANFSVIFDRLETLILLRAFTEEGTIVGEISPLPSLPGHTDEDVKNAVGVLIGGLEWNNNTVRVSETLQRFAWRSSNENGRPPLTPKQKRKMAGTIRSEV

[4] = biological target: T1, Corticotropin-releasing factor receptor 2/Corticotropin-releasing factor-binding protein (Homo sapiens, UniProt P24387+Q13324); test: activators of CRF receptor 2 with binding protein – uHTS hits, confirmation (AID 602473); format: functional; settings: read-out: EC50_Mean
T1 sequence (Q13324 whole entry): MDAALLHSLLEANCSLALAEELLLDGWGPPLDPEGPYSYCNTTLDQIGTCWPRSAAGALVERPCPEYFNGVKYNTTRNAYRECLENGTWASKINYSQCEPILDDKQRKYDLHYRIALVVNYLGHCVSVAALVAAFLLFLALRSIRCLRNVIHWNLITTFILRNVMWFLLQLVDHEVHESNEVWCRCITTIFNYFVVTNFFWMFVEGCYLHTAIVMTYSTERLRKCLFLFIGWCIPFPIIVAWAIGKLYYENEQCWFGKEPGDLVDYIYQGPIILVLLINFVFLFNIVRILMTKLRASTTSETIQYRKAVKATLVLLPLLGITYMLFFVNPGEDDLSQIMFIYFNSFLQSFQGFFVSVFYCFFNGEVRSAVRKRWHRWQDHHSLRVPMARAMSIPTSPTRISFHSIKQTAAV
T1 sequence (P24387 whole entry): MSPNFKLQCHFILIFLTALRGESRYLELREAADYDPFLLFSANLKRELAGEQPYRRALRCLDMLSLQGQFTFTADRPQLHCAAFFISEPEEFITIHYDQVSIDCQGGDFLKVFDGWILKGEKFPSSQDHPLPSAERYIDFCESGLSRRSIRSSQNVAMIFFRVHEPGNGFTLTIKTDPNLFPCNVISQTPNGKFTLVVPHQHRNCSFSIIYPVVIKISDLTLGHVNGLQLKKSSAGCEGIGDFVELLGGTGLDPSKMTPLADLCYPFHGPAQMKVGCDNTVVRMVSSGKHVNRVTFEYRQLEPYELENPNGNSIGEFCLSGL

[5] = biological target: FAD-linked sulfhydryl oxidase ALR (Homo sapiens, UniProt P55789); test: ALR-catalysed DTT oxidation blockers – biochemical, H2O2 detection, luminescence, cherry-pick, dose response (AID 493248)
FAD-linked sulfhydryl oxidase ALR, sequence (P55789 whole entry): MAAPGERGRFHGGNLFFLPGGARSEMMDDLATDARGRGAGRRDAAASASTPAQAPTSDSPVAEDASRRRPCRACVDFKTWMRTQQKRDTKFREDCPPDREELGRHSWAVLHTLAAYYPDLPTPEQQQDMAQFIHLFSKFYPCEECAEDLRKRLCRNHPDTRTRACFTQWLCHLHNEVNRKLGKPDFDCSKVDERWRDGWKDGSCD

[6] = biological target: Long-chain-fatty-acid--AMP ligase FadD28 (Mycobacterium tuberculosis, UniProt P9WQ59); test: Fluorescence polarization aasay to screen for inhibitors that compete for the binding of FadD28 to a bisubstrate Measured in Biochemical System Using Plate Reader - 2147-01_Inhibitor_Dose_CherryPick_Activity.; format: functional, Mycobacterium tuberculosis H37Rv
Long-chain-fatty-acid--AMP ligase FadD28, sequence (P9WQ59 whole entry): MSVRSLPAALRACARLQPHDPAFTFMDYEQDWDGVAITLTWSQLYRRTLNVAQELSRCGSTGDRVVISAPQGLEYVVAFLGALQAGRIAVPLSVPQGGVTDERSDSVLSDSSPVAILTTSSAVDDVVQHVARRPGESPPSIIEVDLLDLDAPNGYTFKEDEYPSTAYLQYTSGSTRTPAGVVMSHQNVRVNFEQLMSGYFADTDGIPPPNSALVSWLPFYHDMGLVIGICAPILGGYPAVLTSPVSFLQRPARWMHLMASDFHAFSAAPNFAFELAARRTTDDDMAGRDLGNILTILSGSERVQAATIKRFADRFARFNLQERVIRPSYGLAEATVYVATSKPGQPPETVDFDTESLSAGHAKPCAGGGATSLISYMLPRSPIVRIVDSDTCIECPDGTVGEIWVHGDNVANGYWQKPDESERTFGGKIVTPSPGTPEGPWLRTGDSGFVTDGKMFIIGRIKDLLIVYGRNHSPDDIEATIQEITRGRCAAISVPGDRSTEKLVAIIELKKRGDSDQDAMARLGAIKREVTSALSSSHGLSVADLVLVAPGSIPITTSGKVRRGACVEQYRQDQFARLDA

[7] = biological target: Cytochrome P450 2C19 (Homo sapiens, UniProt P33261); test: Cytochrome panel assay with activity outcomes. Panel member name: p450-cyp2c19 Compounds with AC50 equal or less than 10 uM are considered active; format: functional; settings: read-out: AC50
Cytochrome P450 2C19, sequence (P33261 whole entry): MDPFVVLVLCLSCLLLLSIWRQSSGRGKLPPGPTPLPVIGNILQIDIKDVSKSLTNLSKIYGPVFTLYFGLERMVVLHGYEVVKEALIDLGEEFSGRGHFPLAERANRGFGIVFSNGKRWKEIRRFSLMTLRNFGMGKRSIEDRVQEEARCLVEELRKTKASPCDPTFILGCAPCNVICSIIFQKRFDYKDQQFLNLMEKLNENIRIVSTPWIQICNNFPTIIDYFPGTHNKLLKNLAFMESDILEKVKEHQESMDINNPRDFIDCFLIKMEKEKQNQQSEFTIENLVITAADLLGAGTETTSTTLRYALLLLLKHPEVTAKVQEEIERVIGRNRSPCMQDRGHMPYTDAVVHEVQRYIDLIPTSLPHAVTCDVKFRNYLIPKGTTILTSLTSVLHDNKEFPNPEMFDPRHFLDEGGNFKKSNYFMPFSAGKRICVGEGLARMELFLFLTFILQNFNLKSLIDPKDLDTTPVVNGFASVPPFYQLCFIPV

[8] = biological target: Epstein-Barr nuclear antigen 1 (Epstein-Barr virus (strain B95-8) (HHV-4) (Human herpesvirus 4), UniProt P03211); test: inhibition of EBV nuclear antigen 1 DNA binding – biochemical, fluorescence polarization, 1536-well, dose response (AID 2381); set-up: species or system human gammaherpesvirus 4;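 further: fluorescence polarization of a Cy5 DNA probe bound by EBNA-1 protein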
Epstein-Barr nuclear antigen 1, sequence (P03211 whole entry): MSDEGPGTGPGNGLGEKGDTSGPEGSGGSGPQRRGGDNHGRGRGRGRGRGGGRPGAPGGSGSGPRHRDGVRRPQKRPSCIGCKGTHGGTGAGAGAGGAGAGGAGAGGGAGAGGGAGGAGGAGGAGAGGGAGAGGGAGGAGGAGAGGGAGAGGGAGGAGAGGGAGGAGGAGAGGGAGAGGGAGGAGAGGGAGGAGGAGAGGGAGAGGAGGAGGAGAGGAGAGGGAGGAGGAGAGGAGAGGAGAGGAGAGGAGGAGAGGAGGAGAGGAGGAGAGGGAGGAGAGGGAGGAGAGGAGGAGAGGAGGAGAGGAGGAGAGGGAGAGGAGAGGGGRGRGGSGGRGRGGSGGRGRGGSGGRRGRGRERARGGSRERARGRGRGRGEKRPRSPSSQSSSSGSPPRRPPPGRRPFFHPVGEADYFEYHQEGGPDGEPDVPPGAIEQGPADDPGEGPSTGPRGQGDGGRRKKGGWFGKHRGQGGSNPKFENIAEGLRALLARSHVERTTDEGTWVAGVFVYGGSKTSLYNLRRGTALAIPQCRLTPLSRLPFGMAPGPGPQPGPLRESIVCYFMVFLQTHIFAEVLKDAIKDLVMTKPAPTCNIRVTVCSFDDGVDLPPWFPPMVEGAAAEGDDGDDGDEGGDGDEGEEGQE

[9] = biological target: T2, Cytochrome P450 1A2 (Homo sapiens, UniProt P05177);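 further: PubChem cytochrome P450 panel assay, CYP1A2 panel member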
T2 sequence (P05177 whole entry): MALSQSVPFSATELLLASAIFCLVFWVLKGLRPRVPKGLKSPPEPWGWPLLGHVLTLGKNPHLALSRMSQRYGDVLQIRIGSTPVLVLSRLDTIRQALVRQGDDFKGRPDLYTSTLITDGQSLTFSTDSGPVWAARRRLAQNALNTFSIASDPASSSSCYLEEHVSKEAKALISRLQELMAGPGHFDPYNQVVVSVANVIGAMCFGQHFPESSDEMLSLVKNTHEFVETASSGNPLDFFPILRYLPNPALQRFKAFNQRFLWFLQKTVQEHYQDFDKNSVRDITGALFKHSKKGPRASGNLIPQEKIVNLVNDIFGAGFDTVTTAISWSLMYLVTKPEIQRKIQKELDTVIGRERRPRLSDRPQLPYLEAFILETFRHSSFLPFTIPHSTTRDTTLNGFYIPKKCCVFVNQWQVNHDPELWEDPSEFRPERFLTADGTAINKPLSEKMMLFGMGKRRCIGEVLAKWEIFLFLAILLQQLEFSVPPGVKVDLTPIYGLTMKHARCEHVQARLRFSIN

[10] = biological target: Cytochrome P450 2C9 (Homo sapiens, UniProt P11712)
Cytochrome P450 2C9, sequence (P11712 whole entry): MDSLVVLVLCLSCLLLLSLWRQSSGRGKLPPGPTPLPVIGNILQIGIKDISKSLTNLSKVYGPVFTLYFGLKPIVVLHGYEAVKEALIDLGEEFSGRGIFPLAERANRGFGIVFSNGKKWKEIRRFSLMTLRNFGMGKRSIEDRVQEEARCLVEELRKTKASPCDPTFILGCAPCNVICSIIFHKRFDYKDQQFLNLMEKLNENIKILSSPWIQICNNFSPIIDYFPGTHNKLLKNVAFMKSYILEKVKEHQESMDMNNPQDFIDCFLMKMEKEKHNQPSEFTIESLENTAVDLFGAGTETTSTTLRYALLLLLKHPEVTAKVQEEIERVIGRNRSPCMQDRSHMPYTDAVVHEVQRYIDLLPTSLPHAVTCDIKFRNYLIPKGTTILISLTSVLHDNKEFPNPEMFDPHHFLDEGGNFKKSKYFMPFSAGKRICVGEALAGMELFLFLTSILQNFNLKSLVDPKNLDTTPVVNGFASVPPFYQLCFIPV

[11] = biological target: Lytic switch protein BZLF1 (Epstein-Barr virus (strain B95-8) (HHV-4) (Human herpesvirus 4), UniProt P03206); test: inhibition of BZLF1 ZTA DNA binding – biochemical, fluorescence polarization, Epstein-Barr virus, 1536-well, counter-screen for EBNA-1 inhibitor project, dose response (AID 2377); set-up: species or system human gammaherpesvirus 4;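 further: fluorescence polarization of Cy5-labelled ZRE DNA probe bound by purified Zta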
Lytic switch protein BZLF1, sequence (P03206 whole entry): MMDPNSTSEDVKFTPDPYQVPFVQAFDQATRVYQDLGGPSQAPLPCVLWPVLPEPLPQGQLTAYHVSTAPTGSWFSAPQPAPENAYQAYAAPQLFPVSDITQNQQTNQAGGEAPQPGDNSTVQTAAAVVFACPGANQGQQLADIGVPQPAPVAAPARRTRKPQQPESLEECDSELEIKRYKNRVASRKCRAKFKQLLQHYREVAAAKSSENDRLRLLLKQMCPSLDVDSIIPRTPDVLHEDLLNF

[12] = DRD fibroblast viability loss – cell-based, non-viral oncogenic, luminescence, dose response (AID 1934); format: functional; settings: Homo sapiens
[13] = test system: HeLa; test: Cytotoxicity counterscreen assay for transcriptional activators of heat shock protein 70 (Hsp70). [Related pubchem assays: 1203, 1252 ]; format: functional; settings: Homo sapiens;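 further: cells exposed to compound for 16 hours before readout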
[14] = test system: BJ; test: BJ-TERT-LT-ST fibroblast viability loss – cell-based, RAS-independent, luminescence, dose response (AID 1935); format: functional; settings: Homo sapiens;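 further: BJ fibroblasts immortalized with TERT plus LT and ST oncogenes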
[15] = test system: BJ; test: cells; format: functional, cell-based; settings: Homo sapiens
[16] = test system: BJ; test: BJ-TERT fibroblast viability loss – cell-based, RAS-independent, luminescence, dose response (AID 1933); format: functional; settings: Homo sapiens
[17] = biological target: Peroxisome proliferator-activated receptor gamma/Nuclear receptor coactivator 2 (Homo sapiens, UniProt P37231); format: functional;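 further: agonist potency for raising coactivator recruitment to the receptor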
Peroxisome proliferator-activated receptor gamma/Nuclear receptor coactivator 2, sequence (P37231 whole entry): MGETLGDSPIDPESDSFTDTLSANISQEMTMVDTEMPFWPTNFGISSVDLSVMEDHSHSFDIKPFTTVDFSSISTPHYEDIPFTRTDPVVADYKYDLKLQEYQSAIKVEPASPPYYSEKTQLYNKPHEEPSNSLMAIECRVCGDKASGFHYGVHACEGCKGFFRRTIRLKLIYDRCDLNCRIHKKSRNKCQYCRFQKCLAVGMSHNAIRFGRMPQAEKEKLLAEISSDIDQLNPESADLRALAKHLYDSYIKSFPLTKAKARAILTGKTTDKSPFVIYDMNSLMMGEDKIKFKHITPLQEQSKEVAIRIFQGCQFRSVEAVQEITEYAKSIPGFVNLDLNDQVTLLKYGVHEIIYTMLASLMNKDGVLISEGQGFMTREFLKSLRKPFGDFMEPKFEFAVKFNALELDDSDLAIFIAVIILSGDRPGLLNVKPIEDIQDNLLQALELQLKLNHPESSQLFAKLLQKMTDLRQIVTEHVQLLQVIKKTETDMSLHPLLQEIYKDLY
Peroxisome proliferator-activated receptor gamma/Nuclear receptor coactivator 2, sequence (Q15596 whole entry, further chain): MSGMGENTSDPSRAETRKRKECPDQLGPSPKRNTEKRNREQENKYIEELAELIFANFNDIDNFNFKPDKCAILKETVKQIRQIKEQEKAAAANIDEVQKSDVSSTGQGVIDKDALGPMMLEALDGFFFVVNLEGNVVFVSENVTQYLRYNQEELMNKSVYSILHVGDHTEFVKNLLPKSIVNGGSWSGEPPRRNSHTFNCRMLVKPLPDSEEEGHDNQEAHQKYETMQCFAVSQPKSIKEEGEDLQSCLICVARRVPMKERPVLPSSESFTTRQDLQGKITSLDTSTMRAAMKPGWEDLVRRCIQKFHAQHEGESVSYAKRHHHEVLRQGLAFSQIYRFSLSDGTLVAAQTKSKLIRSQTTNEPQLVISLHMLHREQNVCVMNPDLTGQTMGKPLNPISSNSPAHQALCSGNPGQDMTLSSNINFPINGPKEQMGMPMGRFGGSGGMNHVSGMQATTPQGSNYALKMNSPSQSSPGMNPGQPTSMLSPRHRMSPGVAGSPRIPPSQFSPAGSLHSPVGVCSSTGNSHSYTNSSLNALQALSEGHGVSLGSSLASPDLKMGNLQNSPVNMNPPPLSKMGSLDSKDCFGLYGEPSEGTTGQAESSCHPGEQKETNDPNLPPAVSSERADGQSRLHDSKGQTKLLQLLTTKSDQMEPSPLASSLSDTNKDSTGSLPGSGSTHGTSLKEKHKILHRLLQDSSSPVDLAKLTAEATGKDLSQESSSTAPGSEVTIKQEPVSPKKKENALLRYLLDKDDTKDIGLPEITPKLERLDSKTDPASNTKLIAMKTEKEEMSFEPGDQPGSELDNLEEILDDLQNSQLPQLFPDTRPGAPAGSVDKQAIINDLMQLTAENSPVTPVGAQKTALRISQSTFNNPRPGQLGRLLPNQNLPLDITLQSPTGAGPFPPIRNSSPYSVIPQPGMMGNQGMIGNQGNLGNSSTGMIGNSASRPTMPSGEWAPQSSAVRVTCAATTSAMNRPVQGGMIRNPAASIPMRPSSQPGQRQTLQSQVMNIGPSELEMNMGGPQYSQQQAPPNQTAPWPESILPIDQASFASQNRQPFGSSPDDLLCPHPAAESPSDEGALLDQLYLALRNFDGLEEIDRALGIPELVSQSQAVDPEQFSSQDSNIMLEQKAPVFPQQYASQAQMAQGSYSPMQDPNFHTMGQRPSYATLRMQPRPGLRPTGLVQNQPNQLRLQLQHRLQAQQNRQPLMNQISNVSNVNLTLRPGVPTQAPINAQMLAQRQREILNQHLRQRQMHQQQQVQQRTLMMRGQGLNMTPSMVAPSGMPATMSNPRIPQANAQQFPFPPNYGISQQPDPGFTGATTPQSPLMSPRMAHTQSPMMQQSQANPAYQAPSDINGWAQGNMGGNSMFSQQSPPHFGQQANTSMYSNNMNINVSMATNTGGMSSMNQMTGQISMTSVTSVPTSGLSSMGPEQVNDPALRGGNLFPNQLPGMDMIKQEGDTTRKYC

[18] = biological target: Peroxisome proliferator-activated receptor gamma/Nuclear receptor coactivator 1 (Homo sapiens, UniProt P37231); format: functional;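 further: agonist potency as compounds enhance coactivator SRC-1 recruitment to PPARgamma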
[19] = biological target: Peroxisome proliferator-activated receptor gamma/Nuclear receptor coactivator 3 (Homo sapiens, UniProt P37231); format: functional;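 further: agonist potency for raising coactivator recruitment to the receptor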

## CC(=O)NC(c1ccccc1)c1cc([N+](=O)[O-])c2cccnc2c1O (stereo not given)
[1]
  AC50: 1.69 µM (active)
[2]
  EC50: > 100 µM (active)
[3]
  IC50: 5.52 µM (active)

## O=C(NN/C=C1\C(=O)N(c2ccc(Cl)cn2)C(=O)c2ccccc21)c1ccncc1
[4]
  EC50: 6.13 µM (active)
[5]
  AC50: 5.43 µM (active)
[6]
  AC50: > 100 µM (inactive)
[2]
  EC50: > 100 µM (active)

## CCc1nnc(NC(=O)CSc2nc3cc4c(cc3cc2C)OCCO4)s1
[7]
  AC50: 6.31 µM (inconclusive)
[8]
  IC50: 5.82 µM (active)
[9]
  AC50: 1.58 µM (inconclusive)
[10]
  AC50: 0.398 µM (inconclusive)
[11]
  IC50: > 111 µM (not active)

## COc1ccc(/C=C/C(=O)c2cc(F)ccc2OC(=O)c2ccccc2OC)cc1OC
[12]
  EC50: 2.56 µM (active)
[13]
  CC50: 14.6 µM (not active)
[14]
  EC50: 1.41 µM (active)
[15]
  EC50: 2.76 µM (active)
[16]
  EC50: 1.14 µM (inconclusive)

## CC(C)(C)C1CCc2c(sc(NC(=O)c3cccs3)c2C(N)=O)C1 (stereo not given)
[17]
  EC50: > 79.4 µM (not active)
[18]
  EC50: > 79.4 µM (not active)
[19]
  EC50: > 79.4 µM (not active)
